# In the supplement of paper PMC10307832:
# What was measured:
# Assay in all cases: relative viability (nuclei count vs DMSO), 5 days (fraction); higher = more cells survive
# NCI-H727 = tested on: NCI-H727
# Summary of the method: (§1)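 The day after seeding in 1536-well plates, lung cancer cell lines were treated by pin tool with a single drug, or with a fixed anchor-drug dose together with five library-drug doses (not always all listed) in √10 steps. After 5 days, a combined fix-and-stain solution (final 0.05% Triton X-100, 1% formaldehyde, 1 ug/ml Hoechst) was added. Nuclei counted on 4× images gave relative viability as treated counts over vehicle counts, reported as the median of duplicate plates.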
# HOP-62 = tested on: HOP-62
# Summary of the method: as §1
# NCI-H1755 = tested on: NCI-H1755
# Summary of the method: as §1
# NCI-H1975 = tested on: NCI-H1975
# Summary of the method: as §1
# EMC-BAC-2 = tested on: EMC-BAC-2
# Summary of the method: as §1
# NCI-H2009 = tested on: NCI-H2009
# Summary of the method: as §1
# NCI-H2228 = tested on: NCI-H2228
# Summary of the method: as §1
# NCI-H460 = tested on: NCI-H460
# Summary of the method: as §1
# CAL-12T = tested on: CAL-12T
# Summary of the method: as §1
# HARA = tested on: HARA
# Summary of the method: as §1
# LCLC-103H = tested on: LCLC-103H
# Summary of the method: as §1
# HCC-827 = tested on: HCC-827
# Summary of the method: as §1
smiles,measurement,setting,value
NC(=O)Nc1cc(-c2cccc(F)c2)sc1C(=O)N[C@H]1CCCNC1 [AZD7762] + CS(=O)(=O)N1CCN(Cc2cc3nc(-c4cccc5[nH]ncc45)nc(N4CCOCC4)c3s2)CC1 [Pictilisib] (partner 1 µM),relative viability,NCI-H727; first compound 0.1 µM,0.321
same,relative viability,NCI-H727; first compound 0.3162 µM,0.243
same,relative viability,NCI-H727; first compound 1 µM,0.269
same,relative viability,HOP-62; first compound 0.01 µM,0.501
same,relative viability,HOP-62; first compound 0.03162 µM,0.801
same,relative viability,HOP-62; first compound 0.1 µM,0.833
same,relative viability,HOP-62; first compound 0.3162 µM,0.645
same,relative viability,HOP-62; first compound 1 µM,0.268
same,relative viability,NCI-H1755; first compound 0.01 µM,0.471
same,relative viability,NCI-H1755; first compound 0.03162 µM,0.469
same,relative viability,NCI-H1755; first compound 0.1 µM,0.406
same,relative viability,NCI-H1755; first compound 0.3162 µM,0.397
same,relative viability,NCI-H1755; first compound 1 µM,0.241
same,relative viability,NCI-H1975; first compound 0.01 µM,0.334
same,relative viability,NCI-H1975; first compound 0.03162 µM,0.304
same,relative viability,NCI-H1975; first compound 0.1 µM,0.288
same,relative viability,NCI-H1975; first compound 0.3162 µM,0.235
same,relative viability,NCI-H1975; first compound 1 µM,0.194
same,relative viability,EMC-BAC-2; first compound 0.01 µM,0.581
same,relative viability,EMC-BAC-2; first compound 0.03162 µM,0.576
same,relative viability,EMC-BAC-2; first compound 0.1 µM,0.574
same,relative viability,EMC-BAC-2; first compound 0.3162 µM,0.542
same,relative viability,EMC-BAC-2; first compound 1 µM,0.527
same,relative viability,NCI-H2009; first compound 0.01 µM,0.867
same,relative viability,NCI-H2009; first compound 0.03162 µM,0.865
same,relative viability,NCI-H2009; first compound 0.1 µM,0.909
same,relative viability,NCI-H2009; first compound 0.3162 µM,0.677
same,relative viability,NCI-H2009; first compound 1 µM,0.321
same,relative viability,NCI-H2228; first compound 0.01 µM,0.381
same,relative viability,NCI-H2228; first compound 0.03162 µM,0.539
same,relative viability,NCI-H2228; first compound 0.1 µM,0.396
same,relative viability,NCI-H2228; first compound 0.3162 µM,0.21
same,relative viability,NCI-H2228; first compound 1 µM,0.136
same,relative viability,NCI-H460; first compound 0.01 µM,0.356
same,relative viability,NCI-H460; first compound 0.03162 µM,0.382
same,relative viability,NCI-H460; first compound 0.1 µM,0.417
same,relative viability,NCI-H460; first compound 0.3162 µM,0.342
same,relative viability,NCI-H460; first compound 1 µM,0.175
same,relative viability,CAL-12T; first compound 0.01 µM,0.413
same,relative viability,CAL-12T; first compound 0.03162 µM,0.521
same,relative viability,CAL-12T; first compound 0.1 µM,0.385
same,relative viability,CAL-12T; first compound 0.3162 µM,0.405
same,relative viability,CAL-12T; first compound 1 µM,0.238
same,relative viability,HARA; first compound 0.01 µM,0.346
same,relative viability,HARA; first compound 0.03162 µM,0.435
same,relative viability,HARA; first compound 0.1 µM,0.353
same,relative viability,HARA; first compound 0.3162 µM,0.412
same,relative viability,HARA; first compound 1 µM,0.32
same,relative viability,LCLC-103H; first compound 0.01 µM,0.659
same,relative viability,LCLC-103H; first compound 0.03162 µM,0.609
same,relative viability,LCLC-103H; first compound 0.1 µM,0.574
same,relative viability,LCLC-103H; first compound 0.3162 µM,0.629
same,relative viability,LCLC-103H; first compound 1 µM,0.514
same,relative viability,HCC-827; first compound 0.01 µM,1.36
same,relative viability,HCC-827; first compound 0.03162 µM,0.962
same,relative viability,HCC-827; first compound 0.1 µM,1.17
same,relative viability,HCC-827; first compound 0.3162 µM,1.21
same,relative viability,HCC-827; first compound 1 µM,0.682
